Laboratory results as given in patent US20260125374A1, “PI3K-ALPHA INHIBITORS AND METHODS OF MAKING AND USING THE SAME” (Relay Therapeutics, Inc., priority 2021, published 2026).
Marks after values point to notes of the source that are not given here. One block for each compound: values may come before it.

Legend:
[1] = Polymorph screening (equilibration, anti-solvent, slow evaporation, slow cooling, temperature cycling, heating-cooling; XRPD and SFC); format: physicochemical; details: for ee %(SFC): 6 days
Procedure: This polymorph screening program of compound I-1 free form was performed with two batches of the pure enantiomer. Both batches are crystalline and is assigned as Form A. The polymorphic behaviors of the enantiomer were investigated by equilibration at 25° C. and 50° C., equilibration under a temperature cycle, crystallization from hot saturated solutions by slow cooling, slow evaporation, precipitation by addition of anti-solvent, and DSC heating-cooling cycle experiments. Relative stability of identified polymorphs was investigated by competitive slurry experiments.
(§1) About 50 mg of I-1 Form A was weighed into a 2 mL glass vial and equilibrated in suitable amount of solvents (pretreated by molecular sieves) at 25° C. for 2 weeks with a stirring plate and with protection from light. Obtained suspensions were filtered with 0.45 μm nylon membrane and the solid parts (wet cake) were investigated by XRPD. When differences were observed, additional investigations were performed (e.g. DSC, TGA, ^1H-NMR, SFC).
as §1, with “into” for “into a”, “vials” for “vial”, “50°” for “25°”, “10 days” for “2 weeks”, “investigation was” for “investigations were”
I-1 Form A was dissolved in a good solvent. […] The solvents used were pretreated by molecular sieve. Precipitates were collected by filtration. The solid part (wet cake) was investigated by XRPD. […] When differences were observed, additional investigations were performed (e.g. DSC, TGA, ^1H-NMR, SFC).
Based on approximate solubility results, I-1 Form A was dissolved in suitable amount of solvents (pretreated by molecular sieves). Obtained solutions were filtered by 0.45 μm nylon filter. […] Solid residues were examined for their polymorphic form. When differences were observed, additional investigations were performed (e.g. DSC, TGA, ^1H-NMR, SFC).
Approximate 50 mg of batch I-1 Form A were dissolved in the minimal amount of selected solvents (without pretreatment by molecular sieves) at 50° C. Obtained solutions were filtered by 0.45 μm nylon filter. […] Precipitates were collected by filtration. The solid parts (wet cake) were investigated by XRPD. When differences were observed, additional investigations were performed (e.g. DSC, TGA, ^1H-NMR, SFC). When no precipitation was obtained or only a few solids were obtained, the solutions were placed at 5° C. for crystallization.
About 50 mg of I-1 Form A was equilibrated in different solvents (pretreated by molecular sieves) under a temperature cycle between 5° C. to 50° C. at a heating/cooling rate of 0.2° C./min for 10 cycles and with protection from light. After 10 cycles, precipitates were collected at 5° C. by filtration. The solid parts (wet cake) were investigated by XRPD. When differences were observed, additional investigations were performed (e.g. DSC, TGA, 1H-NMR, SFC).
Polymorphic behavior of I-1 Form A was investigated by two different heating-cooling cycles of DSC. Cycle 1:30° C. to 280° C. at 10° C./min; 280° C. to −20° C. at 20° C./min; reheat to 300° C. at 10° C./min. Cycle 2:30° C. to 280° C. at 10° C./min; 280° C. to-20° C. at 2° C./min; reheat to 300° C. at 10° C./min.

[2] = Light and glassware influence on racemization of II-1; format: physicochemical
Procedure: The effect of glassware surface pH and light on II-1 racemization was evaluated.

[3] = Salt screening (XRPD, chiral purity of hits); format: physicochemical
Procedure: Based on the pKa of I-1 free form, 23 counter ions were selected as salt/cocrystal forming agents. Methanol, acetone and isopropyl acetate were used as screening solvents. 1.0 equivalent of selected counter ions/coformers was applied for salt screening. Slurry equilibration, slow evaporation and anti-solvent addition were used as crystallization methods. In total, about 70 screening experiments were conducted.
About 50 mg of I-1 Form A were added to a suitable amount of solvent and 1.0 equivalent of counter ions were added under stirring at 50° C. for 2 hours and then at 25° C. for at least 12 hours. MeOH, acetone and IPAc were used as screening solvents.
Obtained suspensions were taken out and centrifuged. Solids obtained were analyzed by XRPD and salt screening results were summarized in Table 5.1, Table 5.2, and Table 5.3.

[4] = cited from earlier work
[5] = equilibration of II-1 in 1,4-dioxane, 50° C.
[6] = crystalline hits of salt screening, listed as I-2 Form A
[7] = crystalline hits of salt screening, listed as III-6 Form A
[8] = crystalline hits of salt screening, listed as III-2 Form A
[9] = crystalline hits of salt screening, listed as III-2 Form B
[10] = crystalline hit dried at 50° C. for 21 h
[11] = crystalline hits of salt screening, listed as I-5 Form A
[12] = crystalline hits of salt screening, listed as I-5 Form B

XRPD (6 days) [1, 5]: II-1 Form B | ee %(SFC) [1, 5]: ee %(SFC): −99.48%* | ee %(SFC) ([1]; equilibration of II-1 in ACN/water(80:20, v/v), 50° C.): ee %(SFC): −99.24%* | ee %(SFC) ([1]; equilibration of II-1 in EtOH/water(50:50, v/v), 50° C.): ee %(SFC): −99.78%* | ee %(SFC) ([1]; equilibration of II-1 in Methanol, 50° C.): ee %(SFC): −99.66%* | XRPD (6 days) ([1]; equilibration of II-1 in THF/water(85:15, v/v) a.w. 0.9, 25° C.): II-1 Form C (include the | ee %(SFC) ([1]; equilibration of II-1 in THF/water(85:15, v/v), 25° C.): ee %(SFC): −99.34%* | racemization in solution ([2]; basic glassware, promoted by light): Noticeable racemization | racemization in solution ([2]; neutral and acidic glassware, absence and presence of light, up to 13 days): no significant racemization
SMILES: N#Cc1c(-c2cc(NC(=O)c3cc(F)cc(C(F)(F)F)c3)c3c(c2)C(=O)N[C@@H]3c2cc(F)ccc2Cl)ccc2ncnn12 [II-1, (S)-N-(3-(2-chloro-5-fluorophenyl)-6-(5-cyano-[1,2,4]triazolo[1,5-a]pyridin-6-yl)-1-oxoisoindolin-4-yl)-3-fluoro-5-(trifluoromethyl)benzamide]

SMILES: N#Cc1c(-c2cc(NC(=O)c3cc(F)cc(C(F)(F)F)c3)c3c(c2)C(=O)N[C@H]3c2cc(F)ccc2Cl)ccc2ncnn12 [Compound I-2]
Salt screening result (slurry crystallization) ([3]; 1.0 equiv. HCl, Isopropyl acetate): + (Salt hits) | Chiral purity (by HPLC) [3, 6]: 89.7% | Crystallinity (By XRPD) [3, 6]: Low | Chiral purity of salt screening solid ([3]; slurry, 1.0 equiv. HCl, Isopropyl acetate): Chiral purity: 89.7%

SMILES: N#Cc1c(-c2cc(NC(=O)c3cc(F)cc(C(F)(F)F)c3)c3c(c2)C(=O)NC3c2cc(F)ccc2Cl)ccc2ncnn12 (stereo not shown) [III-6]
Salt screening result (slurry crystallization) ([3]; 1.0 equiv. naphthalene-2-sulfonic acid, Acetone): + (Salt hits) | Chiral purity (by HPLC) [3, 7]: 43.2% | Crystallinity (By XRPD) [3, 7]: low | Chiral purity of salt screening solid ([3]; slurry, 1.0 equiv. naphthalene-2-sulfonic acid, Acetone): Chiral purity: 43.2%

SMILES: N#Cc1c(-c2cc(NC(=O)c3cc(F)cc(C(F)(F)F)c3)c3c(c2)C(=O)NC3c2cc(F)ccc2Cl)ccc2ncnn12 (stereo not shown) [III-2]
Salt screening result (slurry crystallization) ([3]; 1.0 equiv. HCl, ACN (second block of table)): + (III-2 Form B) (Salt hits) | Salt screening result (slurry crystallization) ([3]; 1.0 equiv. HCl, Acetone): + (III-2 Form A) (Salt hits) | Salt screening result (slurry crystallization) ([3]; 1.0 equiv. HCl, Acetone (second block of table)): + (III-2 Form A) (Salt hits) | Chiral purity (by HPLC) [3, 8]: 30.8% | Crystallinity (By XRPD) [3, 8]: Medium | Chiral purity (by HPLC) [3, 9]: 20.3% | Crystallinity (By XRPD) [3, 9]: Low | Chiral purity of salt screening solid ([3]; slurry, 1.0 equiv. HCl, ACN (second block of table)): Chiral purity: 20.2% | Chiral purity of salt screening solid ([3]; slurry, 1.0 equiv. HCl, Acetone): Chiral purity: 30.8% | Chiral purity of salt screening solid ([3]; slurry, 1.0 equiv. HCl, Acetone (second block of table)): Chiral purity: 45.4%

SMILES: N#Cc1c(-c2cc(NC(=O)c3cc(F)cc(C(F)(F)F)c3)c3c(c2)C(=O)N[C@H]3c2cc(F)ccc2Cl)ccc2ncnn12 [Compound I-5]
Salt screening result (anti-solvent) ([3]; 1.0 equiv. naphthalene-1,5-disulfonic acid, Acetone/MTBE): + (I-5 Form B) (Salt hits) | Chiral purity of salt screening solid ([3]; anti-solvent, 1.0 equiv. naphthalene-1,5-disulfonic acid, Acetone/MTBE): Chiral purity: 88.3% | Chiral purity (by HPLC) [3, 10]: C. for 21 h: 100% | Crystallinity (By XRPD) [3, 10]: low crystallinity | Chiral purity (by HPLC) [3, 11]: 100% dried at 50° | Crystallinity (By XRPD) [3, 11]: Medium crystallinity | Chiral purity (by HPLC) [3, 12]: 88.3% | Crystallinity (By XRPD) [3, 12]: Medium

SMILES: O=C(O)CC(O)(CC(=O)O)C(=O)O [Citric acid]
pKa(s) [4]: 3.12, 4.76, 6.39

SMILES: O=S(=O)(O)c1ccc2ccccc2c1 [Naphthalene-2-sulfonic acid]
pKa(s) [4]: 0.17
